Values quoted from earlier work as cited in patent US10993951B2, “Fosfomycin formulation for parenteral administration” (priority 2016, dated 2021).
Structures can show the parent of a compound that is named as a salt.

Settings: cited from earlier work

**Q.** For `C[C@@H]1O[C@@H]1P(=O)(O)O` [Fosfomycin disodium salt, fosfomycin disodium salt], which solubility in water is on record?
**A.** highly soluble
